Some results are limits rather than exact numbers.

The experiment deals with T1, Human FXRα Ligand Binding Domain (FXRα LBD) (Homo sapiens, UniProt Q96RI1).
T1 construct: polyhistidine (N); made in house; host or cells: E. coli BL21 (DE3), pRSET-A vector
T1 sequence (Q96RI1 222-472 isoform Q96RI1-2): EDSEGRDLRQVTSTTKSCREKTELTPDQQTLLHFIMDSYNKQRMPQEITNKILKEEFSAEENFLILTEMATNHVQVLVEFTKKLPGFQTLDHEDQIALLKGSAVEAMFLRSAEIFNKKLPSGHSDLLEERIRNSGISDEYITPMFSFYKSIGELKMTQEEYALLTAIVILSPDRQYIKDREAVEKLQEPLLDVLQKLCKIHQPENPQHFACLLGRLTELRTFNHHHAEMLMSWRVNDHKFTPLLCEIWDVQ
In words: FXR Affinity Binding Assay: ligand mediated cofactor peptide (SRC-1 LCD2, 676-700) interaction, time resolved fluorescence. Particulars: FXRα LBD-APC / europium labeled SRC-1 peptide, TRF signal, at least 2 hours at room temperature; read-out: Activity (pEC50) (converted).
Regarding `Cc1cc(OCc2c(-c3ccccc3OC(F)(F)F)noc2C(C)C)ccc1NS(=O)(=O)c1cccc(C(=O)O)c1` [Example 69, 3-({[4-({5-Isopropyl-3-[2-(trifluoromethoxy)phenyl]isoxazol-4-yl}methoxy)-2-methyl-phenyl]amino}sulfonyl)benzoic acid], the EC50 is 102 to 1000 nM.

`COC(=O)c1cccc(S(=O)(=O)N(C)c2ccc(OCc3c(-c4ccccc4OC(F)(F)F)noc3C(C)C)cc2Cl)c1` [Example 70, Methyl 3-{[[2-chloro-4-({5-isopropyl-3-[2-(trifluoromethoxy)phenyl]-isoxazol-4-yl}methoxy)phenyl](methyl)amino]sulfonyl}benzoate]: the EC50 was 102 to 1000 nM.

For the compound `COC(=O)c1cccc(S(=O)(=O)N(C)c2ccc(OCc3c(-c4ccccc4OC(F)(F)F)noc3C(C)C)cc2C)c1` [Example 71, Methyl 3-{[[4-({5-isopropyl-3-[2-(trifluoromethoxy)phenyl]isoxazol-4-yl}methoxy)-2-methylphenyl](methyl)amino]sulfonyl}benzoate], the EC50 is 102 to 1000 nM.

Take `CC(C)c1onc(-c2ccccc2OC(F)(F)F)c1COc1ccc(N(C)S(=O)(=O)c2cccc(C(=O)O)c2)c(Cl)c1` [Example 72, 3-{[[2-Chloro-4-({5-isopropyl-3-[2-(trifluoromethoxy)phenyl]isoxazol-4-yl}methoxy)-phenyl](methyl)amino]sulfonyl}benzoic acid]: the EC50 was 102 to 1000 nM.

As for `Cc1cc(OCc2c(-c3ccccc3OC(F)(F)F)noc2C(C)C)ccc1N(C)S(=O)(=O)c1cccc(C(=O)O)c1` [Example 73, 3-{[[4-({5-Isopropyl-3-[2-(trifluoromethoxy)phenyl]isoxazol-4-yl}methoxy)-2-methyl-phenyl](methyl)amino]sulfonyl}benzoic acid], the EC50 is 102 to 1000 nM.

In the case of `CCc1onc(Cc2c(Cl)cccc2Cl)c1COc1ccc(N(C)S(=O)(=O)c2cccc(C(=O)O)c2)c(C)c1` [Example 74, 3-{[(4-{[3-(2,6-Dichlorobenzyl)-5-ethylisoxazol-4-yl]methoxy}-2-methylphenyl)(methyl)-amino]sulfonyl}benzoic acid], the EC50 was 102 to 1000 nM.

As to `COC(=O)c1ccc(OCc2ccc(OCc3c(-c4c(Cl)cccc4Cl)noc3C(C)C)cc2Cl)cc1` [Example 75, Methyl 4-[(2-chloro-4-{[3-(2,6-dichlorophenyl)-5-isopropylisoxazol-4-yl]methoxy}benzyl)oxy]benzoate], the EC50 is 102 to 1000 nM.

For `COC(=O)c1cccc(OCc2ccc(OCc3c(-c4c(Cl)cccc4Cl)noc3C(C)C)cc2Cl)c1` [Example 76, Methyl 3-[(2-chloro-4-{[3-(2,6-dichlorophenyl)-5-isopropylisoxazol-4-yl]methoxy}benzyl)-oxy]benzoate], the EC50 is 102 to 1000 nM.

Consider `CC(C)c1onc(-c2c(Cl)cccc2Cl)c1COc1ccc(COc2cccc(C(=O)O)c2)c(Cl)c1` [Example 77, 3-[(2-Chloro-4-{[3-(2,6-dichlorophenyl)-5-isopropylisoxazol-4-yl]methoxy}benzyl)oxy]-benzoic acid], for which the EC50 is under 100 nM.

`CC(C)c1onc(-c2c(Cl)cccc2Cl)c1COc1ccc(CSc2cccc(C(=O)O)c2)c(Cl)c1` [Example 78, 3-[(2-Chloro-4-{[3-(2,6-dichlorophenyl)-5-isopropylisoxazol-4-yl]methoxy}benzyl)thio]-benzoic acid]: the EC50 was under 100 nM.

With `Cc1cc(OCc2c(-c3c(Cl)cccc3Cl)noc2C(C)C)ccc1COc1cccc(C(=O)O)c1` [Example 79, 3-[(4-{[3-(2,6-Dichlorophenyl)-5-isopropylisoxazol-4-yl]methoxy}-2-methylbenzyl)oxy]-benzoic acid], the EC50 was under 100 nM.

Consider `Cc1cc(OCc2c(-c3c(Cl)cccc3Cl)noc2C(C)C)ccc1CSc1cccc(C(=O)O)c1` [Example 80, 3-[(4-{[3-(2,6-Dichlorophenyl)-5-isopropylisoxazol-4-yl]methoxy}-2-methylbenzyl)thio]-benzoic acid], for which the EC50 was under 100 nM.

As for `CC(C)c1onc(-c2c(Cl)cccc2Cl)c1COc1ccc(COc2ccc(C(=O)O)cc2)c(Cl)c1` [Example 81, 4-[(2-Chloro-4-{[3-(2,6-dichlorophenyl)-5-isopropylisoxazol-4-yl]methoxy}benzyl)oxy]benzoic acid], the EC50 was under 100 nM.

For `CC(C)c1onc(-c2c(Cl)cccc2Cl)c1COc1ccc(CSc2ccc(C(=O)O)cc2)c(Cl)c1` [Example 82, 4-[(2-Chloro-{[3-(2,6-dichlorophenyl)-5-isopropylisoxazol-4-yl]methoxy}benzyl)thio]-benzoic acid], the EC50 is 102 to 1000 nM.

As for `COC(=O)c1cccc(OCc2ccc(OCc3c(-c4ccccc4OC(F)(F)F)noc3C(C)C)cc2Cl)c1` [Example 83, Methyl 3-{[2-chloro-4-({5-isopropyl-3-[2-(trifluoromethoxy)-phenyl]isoxazol-4-yl}methoxy)benzyl]oxy}benzoate], the EC50 was 102 to 1000 nM.

Regarding `COC(=O)c1cccc(OCc2ccc(OCc3c(-c4ccccc4OC(F)(F)F)noc3C(C)C)cc2C)c1` [Example 84, Methyl 3-{[4-({5-isopropyl-3-[2-(trifluoromethoxy)phenyl]isoxazol-4-yl}methoxy)-2-methylbenzyl]oxy}benzoate], the EC50 was 1020 to 10000 nM.

Take `CC(C)c1onc(-c2ccccc2OC(F)(F)F)c1COc1ccc(COc2cccc(C(=O)O)c2)c(Cl)c1` [Example 85, 3-{[2-Chloro-4-({5-isopropyl-3-[2-(trifluoromethoxy)phenyl]isoxazol-4-yl}methoxy)-benzyl]oxy}benzoic acid]: the EC50 is 102 to 1000 nM.

In the case of `Cc1cc(OCc2c(-c3ccccc3OC(F)(F)F)noc2C(C)C)ccc1COc1cccc(C(=O)O)c1` [Example 86, 3-{[4-({5-Isopropyl-3-[2-(trifluoromethoxy)phenyl]isoxazol-4-yl}methoxy)-2-methyl-benzyl]oxy}benzoic acid], the EC50 was 102 to 1000 nM.

For `CCc1onc(Cc2c(Cl)cccc2Cl)c1COc1ccc(COc2cccc(C(=O)O)c2)c(Cl)c1` [Example 87, 3-[(2-Chloro-4-{[3-(2,6-dichlorobenzyl)-5-ethylisoxazol-4-yl]methoxy}benzyl)oxy]benzoic acid], the EC50 was 102 to 1000 nM.

For `COC(=O)c1cccc(SCc2ccc(OCc3c(-c4ccccc4OC(F)(F)F)noc3C(C)C)cc2Cl)c1` [Example 88, Methyl 3-{[2-chloro-4-({5-isopropyl-3-[2-(trifluoro-methoxy)phenyl]isoxazol-4-yl}methoxy)benzyl]thio}benzoate], the EC50 is 102 to 1000 nM.

For the compound `COC(=O)c1cccc(SCc2ccc(OCc3c(-c4ccccc4OC(F)(F)F)noc3C(C)C)cc2C)c1` [Example 89, Methyl 3-{[4-({5-isopropyl-3-[2-(trifluoromethoxy)phenyl]isoxazol-4-yl}methoxy)-2-methylbenzyl]thio}benzoate], the EC50 is 102 to 1000 nM.

With `CC(C)c1onc(-c2ccccc2OC(F)(F)F)c1COc1ccc(CSc2cccc(C(=O)O)c2)c(Cl)c1` [Example 90, 3-{[2-Chloro-4-({5-isopropyl-3-[2-(trifluoromethoxy)phenyl]isoxazol-4-yl}methoxy)-benzyl]thio}benzoic acid], the EC50 is 102 to 1000 nM.

Take `Cc1cc(OCc2c(-c3ccccc3OC(F)(F)F)noc2C(C)C)ccc1CSc1cccc(C(=O)O)c1` [Example 91, 3-{[4-({5-Isopropyl-3-[2-(trifluoromethoxy)phenyl]isoxazol-4-yl}methoxy)-2-methyl-benzyl]thio}benzoic acid]: the EC50 was 102 to 1000 nM.

The values are drawn from US7319109B2, “Farnesoid X receptor agonists” (Smith Kline Beecham Corporation, priority 2002, dated 2008).
